Measured values taken from publication PMC12029992, “Beyond-Rule-of-Five Compounds Are Not Different: In Vitro–In Vivo Extrapolation of Female CD-1 Mouse Clearance Based on Merck Healthcare KGaA Compound Set” (Pharmaceuticals, 2025).
Like-named read-outs stand apart in the source and are kept apart here.

Key:
[1] = Determination of CLint in mouse microsomes (microsomal stability); assay type: in vitro ADME; details: female CD-1 mouse microsomes
Description: Microsomal stability was assessed on a liquid handling platform (Tecan Freedom EVO-2 200 MCA384, Männedorf, Switzerland) using pooled female CD-1 mouse microsomes. Compounds (1 µM final) were pre-incubated with microsomes (final 0.5 mg/mL) for 5 min at 37 °C in phosphate buffer (50 mM, pH 7.4), which was followed by the start of the incubation by the addition of cofactor NADPH (final 1.5 mM). […] Incubations were carried out in singlicate. Aliquots were taken at time points of 0, 5, 10, 20, and 30 min. Additionally, two control samples (0 and 30 min) lacking the addition of NADPH were included in order to flag compounds with non-microsomal metabolism. After incubation, the samples were quenched by adding sample aliquots from four different compound incubations to a two-fold volume of acetonitrile (ACN) for bioanalytical cocktailing designed to avoid analytical interference. After centrifugation, the supernatants were analyzed by a standard reversed-phase liquid chromatography assay coupled to tandem mass spectrometry (UHPLC-MS/MS) (for details, see the Supplementary Materials).
The data were subjected to post-acquisition analysis by the Analyst software (version 1.7.2), and the percentage of compound remaining (defined as the ratio of the peak area at a given time point and that at the 0 min time point) was plotted against the incubation time. The first-order elimination rate constant (kel) was derived by non-linear regression using Biorails version 5.10.22/Morphit version 8.0 (The Edge Software Consultancy, Guildford, UK), and CLint values (expressed in µL/min/mg) were obtained by normalizing kel with the microsome concentration.

female CD-1 mouse = test: Pharmacokinetic studies in mice (IV clearance); assay type: in vivo; details: for in vivo obs. CL,b: blood clearance; for in vivo obs. CLint,b: blood intrinsic clearance; for in vivo obs. CLint,b,u: unbound blood intrinsic clearance
Description: Pharmacokinetic studies were carried out after approval by the internal animal welfare board and in compliance with the local and international animal welfare regulations similarly to a method described previously. Generally, three or twelve CD-1 mice per study were dosed intravenously (0.2–1 mg/kg) using solution vehicles, predominantly 40% PEG 200 in 1% DMSO. For the majority of the studies, blood samples were taken retro-orbitally under inhalation of anesthesia (0.1, 0.5, 1, 2, 4, 6, and 24 h). For the remaining studies, blood sampling was performed both retro-orbitally (0.1, 0.5, 1, 2, and 24 h) and from the saphenous vein (4 and 6 h) (N = 51), from the dorsal metatarsal vein (N = 34), or submandibularly (N = 12). Plasma was obtained by centrifugation (10,000× g; 4 °C; 5 min) and stored at −20 °C until UHPLC-MS/MS analysis. By the addition of an ACN solution containing internal standard, the proteins were precipitated and dissevered by centrifugation. The concentration of the respective molecules studied was determined by a standard UHPLC-MS/MS method (generic method similar to the method described for the determination of CLint using experimentally determined compound MS tuning parameters). Plasma concentrations were determined for each time point sampled. Clearance was estimated from the AUC by non-compartmental analysis, which was performed using WinNonlin® (Princeton, NJ, USA). The geometric mean was used when more than one clearance value from different studies was available.
CLp/Rb observed CLint,b=QH∗obs. CL,b/QH−obs. CL,b
All unbound clearance terms were calculated by dividing the respective clearance by fu,p. predicted/observed CL,b,u=pred./obs. CL,b/fu,p

Caco-2 cells (TC7 clone) = test: Caco-2 assay (permeability, efflux ratio); assay type: in vitro ADME
Description: Reagents and Materials: Phosphate Buffer 20mM pH 7.4: EMS, Art No. 11601-40; DMSO Merck Art. No. 102950; Acetonitrile Merck, Art. No. 100030, Methanol Merck Art. No.
106007; Formic Acid Merck Art.No.100264; Acetonitrile Merck Art. No.10030; Filtration Plate Millipore MultiScreen HTS HV 0.45uM; 96 Well Millipore Art. No. MSHVN4510; Column Waters XBridge Column C8 3.5μm (Waters Cat. No. 186003053); HPLC vials VWR Cat. No. 5480028; Micro-Inserts VWR Cat. No. 548-0006; Screw caps VWR Cat. No.
The Caco-2 assays were performed in a transwell assay setup using Caco-2 cells (TC7 clone). The Caco-2 cells were seeded into the apical wells (125000 cells per well) in DMEM (Dulbecco’s Modified Eagle’s Medium) with 20% FBS (fetal bovine serum) into Corning 24-well transwell plates and cultured for 14-21 days. Prior to the experiment, the plates were washed with HBSS (Hanks' Balanced Salt Solution). Apparent permea-bility Papp was determined from apical-to-basolateral (Papp,AB) by adding 1 […] in HBSS into the apical compartment and HBSS in the basolateral compart-ment, and vice versa for Papp,BA from basolateral-to-apical. Apical volumes were 250 μL, basolateral volumes were 750 μL. DMSO content was <1 % (v/v) in all wells. Monolayer tightness was controlled using melagatran as tightness marker.
Samples were taken from both compartments at timepoint t0 and after 2 hours incuba-tion at 37 °C in 5% CO2 and 100% humidity, and analyzed via UHPLC-MS/MS. The ap-parent permeability Papp was calculated as follows:
P௔௣௣ = Δc௥௘௖Δt∙ V௥௘௖A x cௗ௢௡,଴
Where ∆crec/∆t is the change of concentration in the receiver compartment over the incu-bation time (i.e. 2 hours), Vrec is volume of the receiver compartment, cdon,0 is the concen-tration in the donor compartment at time t0, and A is the surface of the membrane on which the cells grew (i.e. 0.33 cm²).
Mass balance was checked after the experiment by determining the recovery after the […]
Recovery = nௗ௢௡,௘௡ௗ + nௗ௢௡,௥௘௖= cௗ௢௡,௘௡ௗ ∙Vௗ௢௡ + c௥௘௖ ,௘௡ௗ ∙V௥௘௖
The efflux ratio (ER) describes affinity towards efflux transporters:
The geometric mean of Papp,AB and Papp,BA was used as passive permeability Papp,pass.

Microsome CLint [1] | in vivo obs. CL,b (female CD-1 mouse) | in vivo obs. CLint,b (female CD-1 mouse) | in vivo obs. CLint,b,u (female CD-1 mouse) | CaCo-2 Efflux ratio ER (Caco-2 cells (TC7 clone)) | CaCo-2 Papp Passive (Caco-2 cells (TC7 clone); apparent passive permeability) | CaCo-2 Efflux ratio ER (Caco-2 cells (TC7 clone); Caco-2) | CaCo-2 Papp Passive (Caco-2 cells (TC7 clone); Caco-2) | SMILES
17.8 µL/min/mg | 2.83 mL/min/kg | 2.91 mL/min/kg | 170.57 mL/min/kg | 2.6 | 25.85 10e-6 cm/s |  |  | O=C(O)c1cc(-c2ccc(F)cc2F)ccc1O [MSC001]
20.5 µL/min/mg | 6.38 mL/min/kg | 6.81 mL/min/kg | 89.15 mL/min/kg | 1.4 | 31.60 10e-6 cm/s |  |  | CNC(=O)c1cc(Oc2ccc3nc(N[C@@H]4CCCC[C@H]4O)sc3c2)ccn1 [MSC003]
165.3 µL/min/mg | 77.00 mL/min/kg | 317.36 mL/min/kg | 1652.94 mL/min/kg | 48.4 | 2.67 10e-6 cm/s |  |  | COc1cccc(OCCCN)c1-c1cc(Nc2cnc(C#N)cn2)n[nH]1 [MSC020]
212.8 µL/min/mg | 63.61 mL/min/kg | 169.91 mL/min/kg | 3658.76 mL/min/kg |  |  | 1.0 | 24.10 10e-6 cm/s | N#Cc1c[nH]c2c(C(=O)N3CCN(CCc4ccc(F)cc4)CC3)cccc12 [MSC213]
